Columns and labels:
[1] = In vivo absorption profile
[2] = cited from earlier work
[3] = plasma; recorded value; cited from earlier work
[4] = Kinetics of release in vitro (rotating paddle dissolution); format: physicochemical; settings: composition according to the invention, 100 rpm/900 ml of water
Protocol: The study of the changes in the percentage of 5-ISMN dissolved was performed as a function of time. This test was carried out using a rotating paddle apparatus (100 rpm/900 ml of water).

[5] = Physical properties of 5-ISMN (static electricity, flowability, sublimation, solubility); format: physicochemical; settings: well-defined particle size fraction of 5-ISMN powder
[6] = Kinetics of release of the active principle in vitro as a function of pH; format: physicochemical; settings: tablet according to the invention
Protocol: This study was carried out at pH values of 1.5, 4.25 and 7.2 and variable values.

[7] = Particle size by air-jet sieve (ALPIN JET SIEVE); format: physicochemical; settings: for particle size fraction 100 μm to 250 μm: desired profile 20 to 50%; for particle size fraction 80 μm to 100 μm: desired profile 40 to 60%; for particle size fraction larger than 500 μm: desired profile ≤ 0.5%; for particle size fraction 250 μm to 500 μm: desired profile ≤ 5%
Excerpt: The air-Jet sieve method used according to the invention to define the particle size of the 5-ISMN is a technique widely used by those skilled in the art on account of its great sensitivity and reliability, and is consequently very familiar to them. The operating conditions employed in the context of the invention will be clarified in greater detail below.
Characterization of the particle size of the 5-ISMN used according to the invention by the air-jet sieve, type ALPIN JET SIEVE, method
350 g (sic) partial air vacuum,
time 4 min from 80 to 100 μm, then 3 mm (sic) from 250 to 500 μm.
Under these conditions, three batches of 5-ISMN, A, B and C, were tested.

Compound	constant mean flux of in vivo absorption ([1]; calculated from mean curve of percentages of 5-ISMN absorbed) [% h^-1]	absorption profile ([1]; mean curve for the percentages of 5-ISMN absorbed)	sublimation ([2]; 60° C., 75% relative humidity)	flowability ([2]; static electricity phenomenon, dry mixing)	solubility in water and buffer solutions ([2]; water and buffer solutions)	minimal effective concentration (Ceff) [3] [ng/mL]	% dissolved at 0.25 hour ([4]; 0.25 hour)	% dissolved at 1 hour ([4]; 1 hour)	% dissolved at 4 hours ([4]; 4 hours)	% dissolved at 8 hours ([4]; 8 hours) [%]	electrostatic phenomena [5]	flowability and compressibility [5]	tendency to sublime [5]	kinetic profiles of release at constant pH ([6]; pH 1.5, 4.25 and 7.2)	dissolution profile obtained at variable pH ([6]; variable pH)	particle size fraction 100 μm to 250 μm [7] [%]	particle size fraction 80 μm to 100 μm [7] [%]	particle size fraction larger than 500 μm [7] [%]	particle size fraction 250 μm to 500 μm [7] [%]
O=[N+]([O-])O[C@@H]1CO[C@H]2[C@@H]1OC[C@@H]2O [5-ISMN, isosorbide 5-mononitrate]	~13.37	zero order entry up to approximately the fifth hour following administration	sublimation phenomenon	virtually zero flowability	very high solubility	100	5% to 20%	20% to 40%	60% to 80%	≥ 80	low level of electrostatic phenomena	qualities of flowability and compressibility	far less marked tendency to sublime	do not differ significantly from one another	pH-independent mode of release				
O=[N+]([O-])O[C@@H]1CO[C@H]2[C@@H]1OC[C@@H]2O [A, isosorbide 5-mononitrate]																26	47.5	0.0	0.0
O=[N+]([O-])O[C@@H]1CO[C@H]2[C@@H]1OC[C@@H]2O [B, isosorbide 5-mononitrate]																34.4	48.2	0.0	0.9
O=[N+]([O-])O[C@@H]1CO[C@H]2[C@@H]1OC[C@@H]2O [C, isosorbide 5-mononitrate]																34.85	49.2	0.0	0.0
